The source of these data is the supplement of paper PMC10307832.

Common to all, as to assay: relative viability (nuclei count vs DMSO), 5 days (fraction); higher = more cells survive
Compound in the test “MLN4924 + Foretinib”: NS(=O)(=O)OC[C@@H]1C[C@@H](n2ccc3c(N[C@H]4CCc5ccccc54)ncnc32)C[C@@H]1O [MLN4924] + COc1cc2c(Oc3ccc(NC(=O)C4(C(=O)Nc5ccc(F)cc5)CC4)cc3F)ccnc2cc1OCCCN1CCOCC1 [Foretinib] (partner 0.25 µM)
In outline:
(§1)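 A single step with final 0.05% Triton X-100, 1% formaldehyde and 1 ug/ml Hoechst fixed the cells and stained nuclei 5 days after treatment. Lung cancer cell lines in 1536-well plates had been treated by pin tool the day after seeding with one drug alone or a fixed anchor-drug dose plus five library-drug doses (not always all listed) in √10 steps, and nuclei were counted on 4× images. Relative viability is the ratio of nuclei in treated wells to nuclei in vehicle wells, taken as the median of duplicate plates.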

Compound in the test “GSK126 + OSI-027”: CC[C@H](C)N1C=C(C2=C(C=C(C=C21)C3=CN=C(C=C3)N4CCNCC4)C(=O)NCC5=C(C=C(NC5=O)C)C)C [GSK126] + COc1cccc2cc(-c3nc([C@H]4CC[C@H](C(=O)O)CC4)n4ncnc(N)c34)[nH]c12 [OSI-027] (partner 0.5 µM)
In outline:
as §1

Compound in the test “MLN4924 + Pictilisib”: NS(=O)(=O)OC[C@@H]1C[C@@H](n2ccc3c(N[C@H]4CCc5ccccc54)ncnc32)C[C@@H]1O [MLN4924] + CS(=O)(=O)N1CCN(Cc2cc3nc(-c4cccc5[nH]ncc45)nc(N4CCOCC4)c3s2)CC1 [Pictilisib] (partner 1 µM)
In outline:
as §1

Compound in the test “MLN4924 + Palbociclib”: NS(=O)(=O)OC[C@@H]1C[C@@H](n2ccc3c(N[C@H]4CCc5ccccc54)ncnc32)C[C@@H]1O [MLN4924] + CC(=O)c1c(C)c2cnc(Nc3ccc(N4CCNCC4)cn3)nc2n(C2CCCC2)c1=O [Palbociclib] (partner 0.5 µM)
In outline:
as §1

As to COR-L 105, the relative viability with MLN4924 + Foretinib (first compound 0.04 µM) turned out to be 0.697; with MLN4924 + Foretinib (first compound 0.1265 µM), 0.654; with MLN4924 + Foretinib (first compound 0.4 µM), 0.396; with MLN4924 + Foretinib (first compound 1.265 µM), 0.292; with MLN4924 + Foretinib (first compound 4 µM), 0.258; with GSK126 + OSI-027 (first compound 0.08 µM) it was 0.694. In addition, the relative viability turned out to be 0.666 in the test with GSK126 + OSI-027 (first compound 0.253 µM); 0.616 with GSK126 + OSI-027 (first compound 0.8 µM); 0.72 with GSK126 + OSI-027 (first compound 2.53 µM); 0.771 with GSK126 + OSI-027 (first compound 8 µM); 0.427 with MLN4924 + Pictilisib (first compound 0.04 µM); 0.455 with MLN4924 + Pictilisib (first compound 0.1265 µM). For the same cell line, the relative viability amounted to 0.399 with MLN4924 + Pictilisib (first compound 0.4 µM); 0.268 with MLN4924 + Pictilisib (first compound 1.265 µM); 0.274 in the test with MLN4924 + Pictilisib (first compound 4 µM); 0.414 in the test with MLN4924 + Palbociclib (first compound 0.04 µM); 0.395 with MLN4924 + Palbociclib (first compound 0.1265 µM); 0.337 with MLN4924 + Palbociclib (first compound 0.4 µM). In addition, the relative viability worked out at 0.321 in the test with MLN4924 + Palbociclib (first compound 1.265 µM) and 0.34 with MLN4924 + Palbociclib (first compound 4 µM).
On to Calu-6, for which the relative viability in the test with MLN4924 + Foretinib (first compound 0.04 µM) is 0.699; in the test with MLN4924 + Foretinib (first compound 0.1265 µM), 0.322; with MLN4924 + Foretinib (first compound 0.4 µM), 0.209; with MLN4924 + Foretinib (first compound 1.265 µM) it was 0.0838; in the test with MLN4924 + Foretinib (first compound 4 µM), 0.0789; with MLN4924 + Pictilisib (first compound 0.04 µM), 1.08. Besides, the relative viability was 0.707 with MLN4924 + Pictilisib (first compound 0.1265 µM), 0.238 with MLN4924 + Pictilisib (first compound 0.4 µM), 0.108 with MLN4924 + Pictilisib (first compound 1.265 µM) and 0.135 in the test with MLN4924 + Pictilisib (first compound 4 µM).
Turning to ChaGo-K-1, the relative viability with MLN4924 + Foretinib (first compound 0.04 µM) was found to be 0.785; with MLN4924 + Foretinib (first compound 0.1265 µM), 0.503; with MLN4924 + Foretinib (first compound 0.4 µM), 0.336; in the test with MLN4924 + Foretinib (first compound 1.265 µM), 0.244; with MLN4924 + Foretinib (first compound 4 µM) it was 0.22; with GSK126 + OSI-027 (first compound 0.08 µM) it was 0.609. In addition, the relative viability with GSK126 + OSI-027 (first compound 0.253 µM) was 0.611; with GSK126 + OSI-027 (first compound 0.8 µM), 0.562; in the test with GSK126 + OSI-027 (first compound 2.53 µM), 0.545; in the test with GSK126 + OSI-027 (first compound 8 µM) it was 0.544; with MLN4924 + Pictilisib (first compound 0.04 µM) it was 0.515; with MLN4924 + Pictilisib (first compound 0.1265 µM), 0.434. The relative viability is 0.369 in the test with MLN4924 + Pictilisib (first compound 0.4 µM); 0.258 with MLN4924 + Pictilisib (first compound 1.265 µM); 0.272 with MLN4924 + Pictilisib (first compound 4 µM); 0.75 with MLN4924 + Palbociclib (first compound 0.04 µM); 0.419 with MLN4924 + Palbociclib (first compound 0.1265 µM); 0.365 with MLN4924 + Palbociclib (first compound 0.4 µM). Further, the relative viability is 0.184 with MLN4924 + Palbociclib (first compound 1.265 µM) and 0.159 with MLN4924 + Palbociclib (first compound 4 µM).
As to EBC-1, the relative viability with MLN4924 + Foretinib (first compound 0.04 µM) was 0.109; with MLN4924 + Foretinib (first compound 0.1265 µM), 0.15; with MLN4924 + Foretinib (first compound 0.4 µM), 0.147; with MLN4924 + Foretinib (first compound 1.265 µM), 0.082; with MLN4924 + Foretinib (first compound 4 µM), 0.0997; in the test with MLN4924 + Pictilisib (first compound 0.04 µM), 0.488. Moreover, the relative viability came to 0.372 with MLN4924 + Pictilisib (first compound 0.1265 µM), 0.245 with MLN4924 + Pictilisib (first compound 0.4 µM), 0.11 with MLN4924 + Pictilisib (first compound 1.265 µM) and 0.162 in the test with MLN4924 + Pictilisib (first compound 4 µM).
Turning to EKVX, the relative viability amounted to 0.718 in the test with MLN4924 + Foretinib (first compound 0.04 µM); 0.748 in the test with MLN4924 + Foretinib (first compound 0.1265 µM); 0.59 in the test with MLN4924 + Foretinib (first compound 0.4 µM); 0.135 with MLN4924 + Foretinib (first compound 1.265 µM); 0.155 with MLN4924 + Foretinib (first compound 4 µM); 0.753 with GSK126 + OSI-027 (first compound 0.08 µM). In addition, the relative viability is 0.679 with GSK126 + OSI-027 (first compound 0.253 µM); 0.669 with GSK126 + OSI-027 (first compound 0.8 µM); 0.822 with GSK126 + OSI-027 (first compound 2.53 µM); 0.781 in the test with GSK126 + OSI-027 (first compound 8 µM); 0.533 with MLN4924 + Pictilisib (first compound 0.04 µM); 0.513 with MLN4924 + Pictilisib (first compound 0.1265 µM). In addition, the relative viability in the test with MLN4924 + Pictilisib (first compound 0.4 µM) came to 0.363; with MLN4924 + Pictilisib (first compound 1.265 µM) it was 0.135; in the test with MLN4924 + Pictilisib (first compound 4 µM), 0.135; in the test with MLN4924 + Palbociclib (first compound 0.04 µM), 0.389; in the test with MLN4924 + Palbociclib (first compound 0.1265 µM) it was 0.362; in the test with MLN4924 + Palbociclib (first compound 0.4 µM), 0.334. The relative viability with MLN4924 + Palbociclib (first compound 1.265 µM) stood at 0.188; with MLN4924 + Palbociclib (first compound 4 µM) it was 0.142.
In the case of EMC-BAC-2, the relative viability stood at 0.959 with MLN4924 + Foretinib (first compound 0.04 µM); 0.593 with MLN4924 + Foretinib (first compound 0.1265 µM); 0.248 with MLN4924 + Foretinib (first compound 0.4 µM); 0.224 with MLN4924 + Foretinib (first compound 1.265 µM); 0.282 in the test with MLN4924 + Foretinib (first compound 4 µM); 0.398 in the test with GSK126 + OSI-027 (first compound 0.08 µM). For the same cell line, the relative viability with GSK126 + OSI-027 (first compound 0.253 µM) was found to be 0.381; in the test with GSK126 + OSI-027 (first compound 0.8 µM), 0.397; in the test with GSK126 + OSI-027 (first compound 2.53 µM), 0.379; with GSK126 + OSI-027 (first compound 8 µM), 0.373; with MLN4924 + Pictilisib (first compound 0.04 µM), 0.242; in the test with MLN4924 + Pictilisib (first compound 0.1265 µM), 0.569. The relative viability stood at 0.213 with MLN4924 + Pictilisib (first compound 0.4 µM); 0.155 with MLN4924 + Pictilisib (first compound 1.265 µM); 0.192 in the test with MLN4924 + Pictilisib (first compound 4 µM); 0.559 in the test with MLN4924 + Palbociclib (first compound 0.04 µM); 0.431 with MLN4924 + Palbociclib (first compound 0.1265 µM); 0.386 in the test with MLN4924 + Palbociclib (first compound 0.4 µM). The relative viability came to 0.265 with MLN4924 + Palbociclib (first compound 1.265 µM) and 0.312 with MLN4924 + Palbociclib (first compound 4 µM).
Regarding EPLC-272H, the relative viability in the test with MLN4924 + Foretinib (first compound 0.04 µM) was found to be 0.582; with MLN4924 + Foretinib (first compound 0.1265 µM) it was 0.216; with MLN4924 + Foretinib (first compound 0.4 µM), 0.0552; in the test with MLN4924 + Foretinib (first compound 1.265 µM), 0.0953; with MLN4924 + Foretinib (first compound 4 µM), 0.109; with GSK126 + OSI-027 (first compound 0.08 µM), 0.295. Also, the relative viability with GSK126 + OSI-027 (first compound 0.253 µM) was 0.309; with GSK126 + OSI-027 (first compound 0.8 µM) it was 0.318; with GSK126 + OSI-027 (first compound 2.53 µM), 0.353; with GSK126 + OSI-027 (first compound 8 µM), 0.303; in the test with MLN4924 + Pictilisib (first compound 0.04 µM) it was 0.119; with MLN4924 + Pictilisib (first compound 0.1265 µM) it was 0.246. Also, the relative viability with MLN4924 + Pictilisib (first compound 0.4 µM) is 0.0811; with MLN4924 + Pictilisib (first compound 1.265 µM), 0.135; with MLN4924 + Pictilisib (first compound 4 µM) it was 0.135; with MLN4924 + Palbociclib (first compound 0.04 µM), 0.29; with MLN4924 + Palbociclib (first compound 0.1265 µM) it was 0.281; with MLN4924 + Palbociclib (first compound 0.4 µM), 0.102. Further, the relative viability with MLN4924 + Palbociclib (first compound 1.265 µM) worked out at 0.232; with MLN4924 + Palbociclib (first compound 4 µM) it was 0.181.
Take H3255: the relative viability with MLN4924 + Foretinib (first compound 0.04 µM) was found to be 0.799; with MLN4924 + Foretinib (first compound 0.1265 µM), 0.746; in the test with MLN4924 + Foretinib (first compound 0.4 µM), 0.34; in the test with MLN4924 + Foretinib (first compound 1.265 µM) it was 0.285; with MLN4924 + Foretinib (first compound 4 µM), 0.278; with GSK126 + OSI-027 (first compound 0.08 µM), 0.573. Further, the relative viability in the test with GSK126 + OSI-027 (first compound 0.253 µM) came out at 0.568; in the test with GSK126 + OSI-027 (first compound 0.8 µM), 0.578; in the test with GSK126 + OSI-027 (first compound 2.53 µM), 0.666; with GSK126 + OSI-027 (first compound 8 µM) it was 0.583; with MLN4924 + Pictilisib (first compound 0.04 µM), 0.453; with MLN4924 + Pictilisib (first compound 0.1265 µM), 0.382. For the same cell line, the relative viability in the test with MLN4924 + Pictilisib (first compound 0.4 µM) was 0.317; with MLN4924 + Pictilisib (first compound 1.265 µM) it was 0.203; with MLN4924 + Pictilisib (first compound 4 µM), 0.217; with MLN4924 + Palbociclib (first compound 0.04 µM), 0.299; with MLN4924 + Palbociclib (first compound 0.1265 µM), 0.283; in the test with MLN4924 + Palbociclib (first compound 0.4 µM), 0.259. Also, the relative viability stood at 0.308 in the test with MLN4924 + Palbociclib (first compound 1.265 µM) and 0.274 in the test with MLN4924 + Palbociclib (first compound 4 µM).
